Results from PMC9617622 (Journal of medicinal chemistry, 2021).
Values belong to the molecule of their own block, whether it stands above or below them.

Tests used:
[1] = molecular target: T1, D3R (Homo sapiens, UniProt P35462); details: for binding affinity at D3R (in words) / D2R/D3R preference (in words): result in words; for decrease in binding affinity at D3R compared to eticlopride: relative to eticlopride; for D2R/D3R preference (in words): D3R v. D2R binding; for Ki difference, O-alkylated v. N-alkylated linker with the same SP: D3R, 48 v. 15 and 49 v. 13
T1 sequence (P35462 whole entry): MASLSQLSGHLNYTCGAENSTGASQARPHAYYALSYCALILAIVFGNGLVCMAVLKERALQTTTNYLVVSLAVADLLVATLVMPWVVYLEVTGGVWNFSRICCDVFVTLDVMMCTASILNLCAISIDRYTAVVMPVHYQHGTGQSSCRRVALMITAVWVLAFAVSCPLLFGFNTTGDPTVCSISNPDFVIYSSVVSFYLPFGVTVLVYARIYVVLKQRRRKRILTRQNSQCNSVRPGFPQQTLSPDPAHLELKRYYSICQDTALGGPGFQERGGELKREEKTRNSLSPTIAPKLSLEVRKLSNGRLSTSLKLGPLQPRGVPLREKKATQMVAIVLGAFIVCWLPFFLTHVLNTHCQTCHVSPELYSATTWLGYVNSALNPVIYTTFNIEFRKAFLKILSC

[2] = molecular target: human D2L receptor (Homo sapiens, UniProt P14416); details: for binding affinity at D2R (in words): result in words; for decrease in binding affinity at D2R compared to eticlopride: relative to eticlopride
Chain of human D2L receptor (P14416 whole entry): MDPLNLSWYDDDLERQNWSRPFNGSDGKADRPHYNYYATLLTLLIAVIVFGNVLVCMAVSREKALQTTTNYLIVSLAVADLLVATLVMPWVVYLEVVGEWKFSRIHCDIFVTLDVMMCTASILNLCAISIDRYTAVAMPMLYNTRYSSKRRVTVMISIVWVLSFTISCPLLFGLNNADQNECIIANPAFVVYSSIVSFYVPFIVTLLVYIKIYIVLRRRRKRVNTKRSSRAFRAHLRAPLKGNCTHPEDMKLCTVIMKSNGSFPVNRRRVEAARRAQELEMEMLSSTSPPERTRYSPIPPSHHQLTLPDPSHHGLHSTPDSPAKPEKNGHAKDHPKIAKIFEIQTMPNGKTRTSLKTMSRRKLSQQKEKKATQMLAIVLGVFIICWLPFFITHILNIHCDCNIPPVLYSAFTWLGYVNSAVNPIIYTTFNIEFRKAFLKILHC

[3] = molecular target: T1, D3R; details: result in words; compared to full agonist quinpirole and antagonist eticlopride

Structure (SMILES): CCc1cc(Cl)c(OC)c(C(=O)NC[C@@H]2C[C@@H](OCCCc3ccccc3)CN2)c1O [50a, 3-Chloro-5-ethyl-6-hydroxy-2-methoxy-N-(((2S,4R)-4-(3-phenylpropoxy)pyrrolidin-2-yl)methyl)benzamide]
- binding affinity at D3R (in words) [1]: low nanomolar range
- binding affinity at D2R (in words) [2]: low nanomolar range

Structure (SMILES): CCc1cc(Cl)c(OC)c(C(=O)NC[C@@H]2C[C@@H](OCCCCOCc3ccccc3)CN2)c1O [50b, N-(((2S,4R)-4-(4-(Benzyloxy)butoxy)pyrrolidin-2-yl)methyl)-3-chloro-5-ethyl-6-hydroxy-2-methoxybenzamide]
- binding affinity at D3R (in words) [1]: low nanomolar range
- binding affinity at D2R (in words) [2]: low nanomolar range

Structure (SMILES): CCc1cc(Cl)c(OC)c(C(=O)NC[C@@H]2CCCN2)c1O.Cl [compound 5, (S)-3-chloro-5-ethyl-6-hydroxy-2-methoxy-N-(pyrrolidin-2-ylmethyl)benzamide hydrochloride, reference compound]
- decrease in binding affinity at D3R compared to eticlopride [1]: 4 fold
- decrease in binding affinity at D2R compared to eticlopride [2]: 19 fold

Structure (SMILES): CCc1cc(Cl)c(OC)c(C(=O)NC[C@@H]2CCCN2Cc2ccccc2)c1OCc1ccccc1 [compound 8, (S)-2-(Benzyloxy)-N-((1-benzylpyrrolidin-2-yl)methyl)-5-chloro-3-ethyl-6-methoxybenzamide]
- binding affinity at D3R (in words) [1]: low affinity
- binding affinity at D2R (in words) [2]: low affinity

Structure (SMILES): CCc1cc(Cl)c(OC)c(C(=O)NC[C@@H]2CCCN2CCc2c(C)nc3n(c2=O)CCCC3)c1O [compound 10, (S)-3-Chloro-5-ethyl-6-hydroxy-2-methoxy-N-((1-(2-(2-methyl-4-oxo-6,7,8,9-tetrahydro-4H-pyrido[1,2-a]pyrimidin-3-yl)ethyl)pyrrolidin-2-yl)methyl)benzamide]
- D2R/D3R preference (in words) [1]: equiactive at D2R and D3R

Structure (SMILES): CCc1cc(Cl)c(OC)c(C(=O)NC[C@@H]2C[C@@H](OCCCCNC(=O)c3cc4ccccc4[nH]3)CN2CC)c1O [compound 48, N-(4-(((3R,5S)-5-((3-Chloro-5-ethyl-6-hydroxy-2-methoxybenzamido)methyl)-1-ethylpyrrolidin-3-yl)oxy)butyl)-1H-indole-2-carboxamide]
- Ki difference, O-alkylated v. N-alkylated linker with the same SP [1]: ~ 56 fold

Structure (SMILES): CCc1cc(Cl)c(OC)c(C(=O)NC[C@@H]2C[C@@H](OCCCCNC(=O)c3cc4ccccc4o3)CN2CC)c1O [compound 49, N-(4-(((3R,5S)-5-((3-chloro-5-ethyl-6-hydroxy-2-methoxybenzamido)methyl)-1-ethylpyrrolidin-3-yl)oxy)butyl)benzofuran-2-carboxamide]
- Ki difference, O-alkylated v. N-alkylated linker with the same SP [1]: ~ 31 fold

Structure (SMILES): CCc1cc(Cl)c(OC)c(C(=O)NC[C@@H]2C[C@@H](OCCCCO)CN2)c1O [compound 51, 3-Chloro-5-ethyl-6-hydroxy-N-(((2S,4R)-4-(4-hydroxybutoxy)pyrrolidin-2-yl)methyl)-2-methoxybenzamide]
- binding affinity at D3R (in words) [1]: low nanomolar range
- binding affinity at D2R (in words) [2]: low nanomolar range

Structure (SMILES): CCc1cc(Cl)c(OC)c(C(=O)NC[C@@H]2CCCN2CC)c1O [eticlopride]
- functional efficacy at D3R (Go BRET activation) [3]: reference antagonist

Second part, the molecule after the results:

- decrease in binding affinity at D3R compared to eticlopride [1]: 2.6 fold
- decrease in binding affinity at D2R compared to eticlopride [2]: 6 fold
Structure (SMILES): CCCN1CCC[C@H]1CNC(=O)c1c(O)c(CC)cc(Cl)c1OC [compound 6, (S)-3-Chloro-5-ethyl-6-hydroxy-2-methoxy-N-((1-propylpyrrolidin-2-yl)methyl)benzamide]

- decrease in binding affinity at D3R compared to eticlopride [1]: 268 fold
- decrease in binding affinity at D2R compared to eticlopride [2]: 1800 fold
Structure (SMILES): CCc1cc(Cl)c(OC)c(C(=O)NC[C@@H]2CCCN2Cc2ccccc2)c1O [compound 7, (S)-N-((1-Benzylpyrrolidin-2-yl)methyl)-3-chloro-5-ethyl-6-hydroxy-2-methoxybenzamide]

- preference for D3R v. D2R ([1]; ratio of Ki D2R to Ki D3R): 3.6 fold
Structure (SMILES): CCc1cc(Cl)c(OC)c(C(=O)NC[C@@H]2CCCN2CCCCOc2ccc3c(c2)NC(=O)CC3)c1O [compound 11, (S)-3-Chloro-5-ethyl-6-hydroxy-2-methoxy-N-((1-(4-((2-oxo-1,2,3,4-tetrahydroquinolin-7-yl)oxy)butyl)pyrrolidin-2-yl)methyl)benzamide]

- D2R/D3R preference (in words) [1]: modest D3R preference was not seen
Structure (SMILES): CCc1cc(Cl)c(OC)c(C(=O)NC[C@@H]2CCCN2CCCCNC(=O)c2cc3ccccc3o2)c1O [compound 13, (S)-N-(4-(2-((3-Chloro-5-ethyl-6-hydroxy-2-methoxybenzamido)methyl)pyrrolidin-1-yl)butyl) benzofuran-2-carboxamide]
